In brackets after ≈: the same amount, converted by molar mass.

This note sets out measurements from ChEMBL document CHEMBL4052769, “Synthesis and biological evaluation of novel 1,2,3-triazole derivatives as anti-tubercular agents” (Bioorg Med Chem Lett, 2017).

Data set [1] deals with Mycobacterium tuberculosis. The data set is described as follows: Antitubercular activity against Mycobacterium tuberculosis H37Ra ATCC 25177 after 4 weeks by Agar-based proportion Assay. The data set is classed as functional. The settings on record: H37Ra ATCC 25177, 672 h.
Data set [2] is described as follows: Selectivity index, ratio of CC50 for Swiss mouse BMDM to MIC for Mycobacterium tuberculosis H37Ra ATCC 25177.
Data set [3] can be described thus: Cytotoxicity against Swiss mouse BMDM assessed as reduction in cell viability after 24 hrs by MTS assay. The data set is classed as cell-based. The settings on record: bone marrow-derived macrophages (BMDM). On the technique in general: Formazan colour is commonly taken as a measure of viable cells.

As usually defined, the MIC is the lowest concentration found to suppress growth. The low end stands for inhibition by little substance, the high end for a need for much substance. A word on the CC50: it is the concentration that lowers cell viability or growth by half. In turn, `FC(F)(F)c1ccc(-n2cc(COc3ccc(-c4ccccc4)cc3)nn2)cc1` gave an MIC in data set [1] of 3.12 µg/mL (≈ 7.89 µM). In addition, the Selectivity Index in data set [2] worked out at 32. Moreover, the CC50 at 24 h in data set [3] was 100 µg/mL (≈ 253 µM).

In data set [1], `CC[C@@H](CO)NCCN[C@@H](CC)CO` [ETHAMBUTOL] yielded an MIC of 2 µg/mL (≈ 9.79 µM). Also, the Selectivity Index in data set [2] turned out to be 50. Besides, the CC50 at 24 h in data set [3] was 100 µg/mL (≈ 489 µM).

For `Fc1ccc(-n2cc(COc3ccc(-c4ccccc4)cc3)nn2)cc1Cl`, the MIC in data set [1] worked out at 1.56 µg/mL (≈ 4.11 µM). For the same molecule, the Selectivity Index in data set [2] came to 64.1. In data set [3], the CC50 at 24 h was determined as 100 µg/mL (≈ 263 µM). In data set [1], `CC(=O)OCCn1cc(COc2ccc(-c3ccccc3)cc2)nn1` came in with a minimal inhibitory concentration (MIC) of 1.56 µg/mL (≈ 4.62 µM). Besides, in data set [2], the Selectivity Index stood at 64.1. For the same molecule, the CC50 at 24 h in data set [3] came to 100 µg/mL (≈ 296 µM). Consider `Fc1ccc(-n2cc(COc3ccc(-c4ccccc4)cc3)nn2)cc1`, for which the MIC in data set [1] was > 25 µg/mL. Turning to `CCCCCCCCn1cc(COc2ccc(-c3ccccc3)cc2)nn1`, the minimum inhibitory concentration (MIC) in data set [1] is > 25 µg/mL. Consider `c1ccc(Cn2cc(COc3ccc(-c4ccccc4)cc3)nn2)cc1`, for which the MIC in data set [1] was > 25 µg/mL. As for `Brc1ccc(-n2cc(COc3ccc(-c4ccccc4)cc3)nn2)cc1`, in data set [1], the MIC was > 25 µg/mL.

Consider `O=[N+]([O-])c1ccc(-n2cc(COc3ccc(-c4ccccc4)cc3)nn2)cc1`, for which the MIC in data set [1] is > 25 µg/mL. With `NNC(=O)c1ccncc1` [ISONIAZID], it took 0.025 µg/mL (≈ 0.182 µM) to inhibit growth in data set [1] (MIC). Also, the Selectivity Index in data set [2] is 4000. Further, the CC50 at 24 h in data set [3] is 100 µg/mL (≈ 729 µM).

With `COc1ccc(-n2cc(COc3ccc(-c4ccccc4)cc3)nn2)cc1`, in data set [1], the minimal inhibitory concentration (MIC) is > 25 µg/mL.

In data set [1], `FC(F)Oc1ccc(-n2cc(COc3ccc(-c4ccccc4)cc3)nn2)cc1` registered an MIC of 1.56 µg/mL (≈ 3.97 µM). In data set [3], the CC50 at 24 h turned out to be 100 µg/mL (≈ 254 µM). `Fc1ccc(-n2cc(COc3ccc(-c4ccccc4)cc3)nn2)cc1F` showed an MIC in data set [1] of 3.12 µg/mL (≈ 8.59 µM). Besides, the Selectivity Index in data set [2] came to 32. In addition, in data set [3], the CC50 at 24 h was 100 µg/mL (≈ 275 µM). Consider `Clc1ccc(-n2cc(COc3ccc(-c4ccccc4)cc3)nn2)cc1`, for which the MIC in data set [1] is > 25 µg/mL. As to `N#Cc1ccc(-n2cc(COc3ccc(-c4ccccc4)cc3)nn2)cc1`, in data set [1], the MIC is > 25 µg/mL.

Regarding `c1ccc(CCn2cc(COc3ccc(-c4ccccc4)cc3)nn2)cc1`, the MIC in data set [1] was > 25 µg/mL. For the molecule `c1ccc(-c2ccc(OCc3cn(-c4ccccc4)nn3)cc2)cc1`, in data set [1], the MIC is > 25 µg/mL. Regarding `O=[N+]([O-])c1ccc(Cn2cc(COc3ccc(-c4ccccc4)cc3)nn2)cc1`, the MIC in data set [1] is > 25 µg/mL. For the molecule `Fc1ccccc1-n1cc(COc2ccc(-c3ccccc3)cc2)nn1`, in data set [1], it took 0.78 µg/mL (≈ 2.26 µM) to inhibit growth (MIC). The Selectivity Index in data set [2] turned out to be 128. For the same molecule, the CC50 at 24 h in data set [3] came out at 100 µg/mL (≈ 290 µM).
